Among the data in patent EP2951180B1, “2,6,7,8 SUBSTITUTED PURINES AS HDM2 INHIBITORS” (Merck Sharp & Dohme Corp., priority 2013, dated 2014) are IC50 values, retold here.

In this experiment the target is T1, HDM2 (Homo sapiens, UniProt Q00987).
T1 construct: Thioredoxin (N); made in house; host or cells: E. coli strain BL21(DE3)Rosetta
T1 sequence (Q00987 17-125): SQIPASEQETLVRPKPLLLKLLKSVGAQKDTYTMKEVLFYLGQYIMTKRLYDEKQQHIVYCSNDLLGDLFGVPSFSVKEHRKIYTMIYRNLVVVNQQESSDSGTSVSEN
Description: FRET assay (HDM2 inhibition; method not described in this part). It is filed as binding. Particulars: Table 2.
Take `CCc1cccc(-c2nc3nc(C(=O)O)nc(N[C@H](C)C4CCC4)c3n2Cc2ccc(C(F)(F)F)cc2)c1` [Example 2.23, 6-{[(1R)-1-cyclobutylethyl]amino}-8-(3-ethylphenyl)-7-[4-(trifluoromethyl)benzyl]-7H-purine-2-carboxylic acid]: 16.7 nM corresponded to half-maximal inhibition (IC50).

As to `CC(C)c1cccc(-c2nc3nc(C(=O)O)nc(N[C@H](C)C4CCC4)c3n2Cc2ccc(C(F)(F)F)cc2)c1` [Example 2.24, 6-{[(1R)-1-cyclobutylethyl]amino}-8-[3-(1-methylethyl)phenyl]-7-[4-(trifluoromethyl)benzyl]-7H-purine-2-carboxylic acid], the IC50 (usually the concentration at which inhibition is half-maximal) came out at 14.7 nM.

`C[C@@H](Nc1nc(C(=O)O)nc2nc(-c3cccc(C(C)(C)C)c3)n(Cc3ccc(C(F)(F)F)cc3)c12)C1CCC1` [Example 2.25, 8-(3-tert-butylphenyl)-6-{[(1R)-1-cyclobutylethyl]amino}-7-[4-(trifluoromethyl)benzyl]-7H-purine-2-carboxylic acid] registered a half-maximal inhibitory concentration (IC50) of 59.1 nM.

The compound `C[C@@H](Nc1nc(C(=O)O)nc2nc(-c3cccc(OC(F)(F)F)c3)n(Cc3ccc(C(F)(F)F)cc3)c12)C1CC1` [Example 2.26, 6-{[(1R)-1-cyclopropylethyl]amino}-8-[3-(trifluoromethoxy)phenyl]-7-[4-(trifluoromethyl)benzyl]-7H-purine-2-carboxylic acid] gave an IC50 of 550 nM.

Compound `C[C@@H](Nc1nc(C(=O)O)nc2nc(-c3ccc(OC(F)(F)F)cc3)n(Cc3ccc(C(F)(F)F)cc3)c12)C1CC1` [Example 2.27, 6-{[(1R)-1-cyclopropylethyl]amino}-8-[4-(trifluoromethoxy)phenyl]-7-[4-(trifluoromethyl)benzyl]-7H-purine-2-carboxylic acid] returned an IC50 of 1140 nM.

Compound `COc1cc(OC)cc(-c2nc3nc(C(=O)O)nc(N[C@H](C)C4CC4)c3n2Cc2ccc(C(F)(F)F)cc2)c1` [Example 2.28, 6-{[(1R)-1-cyclopropylethyl]amino}-8-(3,5-dimethoxyphenyl)-7-[4-(trifluoromethyl)benzyl]-7H-purine-2-carboxylic acid] had an IC50 of 455 nM. This IC50 lies about 2.5-fold lower than the previous one.

`C[C@@H](Nc1nc(C(=O)O)nc2nc(-c3cccc(N(C)C)c3)n(Cc3ccc(C(F)(F)F)cc3)c12)C1CC1` [Example 2.29, 6-{[(1R)-1-cyclopropylethyl]amino}-8-[3-(dimethylamino)phenyl]-7-[4-(trifluoromethyl)benzyl]-7H-purine-2-carboxylic acid] showed an IC50 of 105 nM.

In turn, `Cc1ccccc1-c1nc2nc(C(=O)O)nc(N[C@H](C)C3CC3)c2n1Cc1ccc(C(F)(F)F)cc1` [Example 2.30, 6-{[(1R)-1-cyclopropylethyl]amino}-8-(2-methylphenyl)-7-[4-(trifluoromethyl)benzyl]-7H-purine-2-carboxylic acid] returned an IC50 of 140 nM.

`C[C@@H](Nc1nc(C(=O)O)nc2nc(-c3ccc(Cl)c(Cl)c3)n(Cc3ccc(C(F)(F)F)cc3)c12)C1CC1` [Example 2.31, 6-{[(1R)-1-cyclopropylethyl]amino}-8-(3,4-dichlorophenyl)-7-[4-(trifluoromethyl)benzyl]-7H-purine-2-carboxylic acid] showed an IC50 of 154 nM.

`C[C@@H](Nc1nc(C(=O)O)nc2nc(-c3ccc(C(C)(C)C)cc3)n(Cc3ccc(C(F)(F)F)cc3)c12)C1CC1` [Example 2.32, 8-(4-tert-butylphenyl)-6-{[(1R)-1-cyclopropylethyl]amino}-7-[4-(trifluoromethyl)benzyl]-7H-purine-2-carboxylic acid] showed an IC50 of 1950 nM. Compared with the last compound, the IC50 is about 13-fold higher.

Take `Cc1ccc(-c2nc3nc(C(=O)O)nc(N[C@H](C)C4CC4)c3n2Cc2ccc(C(F)(F)F)cc2)cc1` [Example 2.33, 6-{[(1R)-1-cyclopropylethyl]amino}-8-(4-methylphenyl)-7-[4-(trifluoromethyl)benzyl]-7H-purine-2-carboxylic acid]: the IC50 came to 401 nM. Compared with the last compound, the IC50 is about 4.9-fold lower.

Compound `C[C@@H](Nc1nc(C(=O)O)nc2nc(-c3ccccc3OC(F)(F)F)n(Cc3ccc(C(F)(F)F)cc3)c12)C1CC1` [Example 2.34, 6-{[(1R)-1-cyclopropylethyl]amino}-8-[2-(trifluoromethoxy)phenyl]-7-[4-(trifluoromethyl)benzyl]-7H-purine-2-carboxylic acid] registered an IC50 of 21 nM.

In turn, `C[C@@H](Nc1nc(C(=O)O)nc2nc(-c3cnn(C)c3)n(Cc3ccc(C(F)(F)F)cc3)c12)C1CC1` [Example 2.35, 6-{[(1R)-1-cyclopropylethyl]amino}-8-(1-methyl-1H-pyrazol-4-yl)-7-[4-(trifluoromethyl)benzyl]-7H-purine-2-carboxylic acid] registered an IC50 of 510 nM.

On to `Cc1ccc(-c2nc3nc(C(=O)O)nc(N[C@H](C)C4CC4)c3n2Cc2ccc(C(F)(F)F)cc2)cn1` [Example 2.36, 6-{[(1R)-1-cyclopropylethyl]amino}-8-(6-methylpyridin-3-yl)-7-[4-(trifluoromethyl)benzyl]-7H-purine-2-carboxylic acid], for which the IC50 came to 1300 nM.

`C[C@@H](Nc1nc(C(=O)O)nc2nc(-c3cccc(N(C)C)c3)n(Cc3ccc(C(F)(F)F)cc3)c12)C1CCC1` [Example 2.37, 6-{[(1R)-1-cyclobutylethyl]amino}-8-[3-(dimethylamino)phenyl]-7-[4-(trifluoromethyl)benzyl]-7H-purine-2-carboxylic acid]: half-maximal inhibition (IC50) was put at 6.6 nM.

Consider `C[C@@H](Nc1nc(C(=O)O)nc2nc(-c3cccc(C(F)(F)F)c3)n(Cc3ccc(C(F)(F)F)cc3)c12)C1CCC1` [Example 2.38, 6-{[(1R)-1-cyclobutylethyl]amino}-7-[4-(trifluoromethyl)benzyl]-8-[3-(trifluoromethyl)phenyl]-7H-purine-2-carboxylic acid], for which 11.2 nM corresponded to half-maximal inhibition (IC50). Against the preceding compound, the IC50 is about 1.7-fold higher.

For the compound `C[C@@H](Nc1nc(C(=O)O)nc2nc(-c3cccc(OC(F)(F)F)c3)n(Cc3ccc(C(F)(F)F)cc3)c12)C1CCC1` [Example 2.39, 6-{[(1R)-1-cyclobutylethyl]amino}-8-[3-(trifluoromethoxy)phenyl]-7-[4-(trifluoromethyl)benzyl]-7H-purine-2-carboxylic acid], the IC50 turned out to be 52 nM.

`C[C@@H](Nc1nc(C(=O)O)nc2nc(-c3cccc(Cl)c3)n(Cc3ccc(C(F)(F)F)cc3)c12)C1CCC1` [Example 2.40, 8-(3-chlorophenyl)-6-{[(1R)-1-cyclobutylethyl]amino}-7-[4-(trifluoromethyl)benzyl]-7H-purine-2-carboxylic acid]: the IC50 turned out to be 30 nM.

Consider `CNS(=O)(=O)c1ccc(-c2nc3nc(C(=O)O)nc(N[C@H](C)C4CCC4)c3n2Cc2ccc(C(F)(F)F)cc2)cc1` [Example 2.41, 6-{[(1R)-1-cyclobutylethyl]amino}-8-[4-(methylsulfamoyl)phenyl]-7-[4-(trifluoromethyl)benzyl]-7H-purine-2-carboxylic acid], for which the 50% inhibitory concentration (IC50) came out at 44 nM.

`C[C@@H](Nc1nc(C(=O)O)nc2nc(C3CC3)n(Cc3ccc(Cl)cc3)c12)C1CC1` [Example 2.42, 7-(4-chlorobenzyl)-8-cyclopropyl-6-{[(1R)-1-cyclopropylethyl]amino}-7H-purine-2-carboxylic acid] came in with an IC50 of 265 nM. Against the preceding compound, the IC50 is about 6-fold higher.

As to `C[C@@H](Nc1nc(C(=O)O)nc2nc(Cc3ccccc3)n(Cc3ccc(Cl)cc3)c12)C1CC1` [Example 2.43, 8-benzyl-7-(4-chlorobenzyl)-6-{ [(1R)-1-cyclopropylethyl]amino}-7H-purine-2-carboxylic acid], it took 28.1 nM to reach half-maximal inhibition (IC50).

Compound `C[C@@H](Nc1nc(C(=O)O)nc2nc(-c3cccnc3)n(Cc3ccc(C(F)(F)F)cc3)c12)C1CC1` [Example 2.44, 6-{[(1R)-1-cyclopropylethyl]amino}-8-pyridin-3-yl-7-[4-(trifluoromethyl)benzyl]-7H-purine-2-carboxylic acid] came in with an IC50 of 640 nM.

Turning to `C[C@@H](Nc1nc(C(=O)O)nc2nc(-c3cccc(C#N)c3)n(Cc3ccc(C(F)(F)F)cc3)c12)C1CCC1` [Example 2.45, 8-(3-cyanophenyl)-6-{[(1R)-1-cyclobutylethyl]amino}-7-[4-(trifluoromethyl)benzyl]-7H-purine-2-carboxylic acid], inhibition was half-maximal at 63 nM (IC50).

`COc1ncc(-c2nc3nc(C(=O)O)nc(N[C@H](C)C4CCC4)c3n2Cc2ccc(C(F)(F)F)cc2)cc1Cl` [Example 2.46, 8-(5-chloro-6-methoxypyridin-3-yl)-6-{[(1R)-1-cyclobutylethyl]amino}-7-[4-(trifluoromethyl)benzyl]-7H-purine-2-carboxylic acid]: the half-inhibitory concentration (IC50) worked out at 51 nM.

Compound `C[C@@H](Nc1nc(C(=O)O)nc2nc(-c3ccccc3F)n(Cc3ccc(C(F)(F)F)cc3)c12)C1CCC1` [Example 2.47, 6-{[(1R)-1-cyclobutylethyl]amino}-8-(2-fluorophenyl)-7-[4-(trifluoromethyl)benzyl]-7H-purine-2-carboxylic acid] returned an IC50 of 26 nM.

In the case of `COc1ccc(-c2nc3nc(C(=O)O)nc(N[C@H](C)C4CC4)c3n2Cc2ccc(C(F)(F)F)cc2)cn1` [Example 2.48, 6-{[(1R)-1-cyclopropylethyl]amino}-8-(6-methoxypyridin-3-yl)-7-[4-(trifluoromethyl)benzyl]-7H-purine-2-carboxylic acid], half-maximal inhibition (IC50) was put at 680 nM.

Turning to `COc1ncc(-c2nc3nc(C(=O)O)nc(N[C@H](C)C4CC4)c3n2Cc2ccc(C(F)(F)F)cc2)cc1F` [Example 2.49, 6-{[(1R)-1-cyclopropylethyl]amino}-8-(5-fluoro-6-methoxypyridin-3-yl)-7-[4-(trifluoromethyl)benzyl]-7H-purine-2-carboxylic acid], the IC50 was 310 nM.

Turning to `Cc1cc(C)cc(-c2nc3nc(C(=O)O)nc(N[C@H](C)C4CC4)c3n2Cc2ccc(C(F)(F)F)cc2)c1` [Example 2.50, 6-{[(1R)-1-cyclopropylethyl]amino}-8-(3,5-dimethylphenyl)-7-[4-(trifluoromethyl)benzyl]-7H-purine-2-carboxylic acid], the IC50 was 120 nM.

Regarding `C[C@@H](Nc1nc(C(=O)O)nc2nc(-c3cnc(O)c(F)c3)n(Cc3ccc(C(F)(F)F)cc3)c12)C1CC1` [Example 2.51, 6-{[(1R)-1-cyclopropylethyl]amino}-8-(5-fluoro-6-hydroxypyridin-3-yl)-7-[4-(trifluoromethyl)benzyl]-7H-purine-2-carboxylic acid], it took 1230 nM to reach half-maximal inhibition (IC50).
